The target of test [1] is T1, Nox4 oxidase (COS-Nox4 lysate: hNox4, p22phox) (Homo sapiens, UniProt Q9NPH5).
T1 construct: expressed in transfected cells; host or cells: COS-22 cells (COS 7 with p22phox), stably transfected; cell lysate used
T1 sequence (Q9NPH5 1-578): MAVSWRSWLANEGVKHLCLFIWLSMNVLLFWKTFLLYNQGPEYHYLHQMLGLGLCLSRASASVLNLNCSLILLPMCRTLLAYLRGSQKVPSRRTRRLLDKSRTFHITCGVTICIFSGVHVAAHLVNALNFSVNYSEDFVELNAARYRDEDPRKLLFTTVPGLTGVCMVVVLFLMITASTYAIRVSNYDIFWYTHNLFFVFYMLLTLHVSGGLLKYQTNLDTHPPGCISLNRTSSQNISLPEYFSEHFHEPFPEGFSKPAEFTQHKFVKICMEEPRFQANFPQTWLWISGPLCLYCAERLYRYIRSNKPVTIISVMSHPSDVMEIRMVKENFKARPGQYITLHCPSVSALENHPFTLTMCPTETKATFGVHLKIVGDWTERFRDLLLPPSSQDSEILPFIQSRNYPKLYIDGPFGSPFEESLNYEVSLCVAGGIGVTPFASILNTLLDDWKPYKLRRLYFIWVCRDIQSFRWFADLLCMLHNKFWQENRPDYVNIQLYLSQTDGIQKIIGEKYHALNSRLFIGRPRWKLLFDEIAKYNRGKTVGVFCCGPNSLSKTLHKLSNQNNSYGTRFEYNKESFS
T1 sequence (P13498 2-195 partner limits assumed): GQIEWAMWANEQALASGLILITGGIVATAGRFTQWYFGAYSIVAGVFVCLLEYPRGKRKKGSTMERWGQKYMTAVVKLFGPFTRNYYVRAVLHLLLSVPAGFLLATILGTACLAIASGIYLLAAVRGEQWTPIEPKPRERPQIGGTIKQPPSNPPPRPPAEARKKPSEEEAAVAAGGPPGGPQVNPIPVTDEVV
Briefly: Amplex Red assay, H2O2 production in COS-Nox4 lysates. The test is classed as biochemical. The conditions noted are these: for rate of H2O2 production, Amplex red oxidation: 0 μM control 80.4±3.1. The procedure: To test this hypothesis, the inhibitory activity of Nox2ds was assessed in cell-free assays using reconstituted systems expressing either Nox1, 2 or 4 oxidase. Nox 2 oxidase was recapitulated by stably transfecting COS 7 cells with Nox2, p22phox, p47phox, and p67phox (aka COS-Nox2). Nox1 oxidase was obtained by transfecting COS 7 cells with Nox1, p22phox, NOXO1 and NOXA1 (COS-Nox1), and Nox 4 oxidase was regenerated by transfection of COS 7 cells with Nox4 and p22phox. […] Our new data support selectivity of Nox2ds peptide in differentiating the contribution of Nox2 vs. Nox1 and Nox4 NADPH oxidase and its potential clinical use in ameliorating cardiopulmonary diseases.
Cell transfection was carried out using Lipofectamine LTX and Plus reagent (Invitrogen), according to the manufacturer's instructions. COS-22 cells were transiently cotransfected with pcDNA 3.1-hNox1, pCMVsport 6-hNOXA1, and pcDNA3.1-hNoxO1 (COS-Nox1/NOXO1/NOXA1 cells). Cells were used 24 h after transfection. For stable transfection of Nox4, COS-22 cells were transfected with pcDNA3.1/Hygro-hNox4 (COS-Nox4 cells). COS-Nox4 cells were selected in complete medium supplemented with 0.2 mg/ml hygromycin B and 1.8 mg/ml G418. Stable transfectants were maintained in culture under the same conditions. Adherent cells were harvested by incubating with 0.05% trypsin/EDTA for 5 min at 37° C. After addition of DMEM/10% FBS to neutralize the trypsin, the cells were pelleted by centrifugation at 1000 g for 5 min at 4° C. and used for the experiments.
Hydrogen peroxide (H2O2) generation was quantified in COS-Nox4 cell lysates by Amplex Red. H2O2-producing activity was quantified in […] using Amplex red. Briefly, COS-Nox4 cells (5×10^7 cells/nil) were disrupted in ice-cold disruption buffer (PBS containing 0.1 mM EDTA, 10% glycerol, protease inhibitor cocktail, and 0.1 mM PMSF) by freeze/thaw cycles as we described above. Incubation of COS-Nox4 cell lysate with Nox2ds was performed in assay buffer (25 mM Hepes, pH 7.4, containing 0.12 M NaCl, 3 mM KCl, 1 mM MgCl2, 0.1 mM Amplex red, and 0.32 U/ml HRP) for 5 min at room temperature on an orbital shaker (120 movements/min), before the addition of 36 μM NADPH, to initiate H2O2 production. […] Fluorescence measurements were made using a Biotek Synergy 4 hybrid multimode microplate reader with a 530/25-excitation and a 590/35-emission filter. A standard curve of known H2O2 concentrations was developed using the Amplex red assay (as per the manufacturer's instructions) and was used to quantify H2O2 production in the COS-Nox4 cell-free system. Nox4 activity was obtained by subtracting nontransfected COS-22 cell lysate activity from COS-Nox4 cell lysate activity. The reaction was monitored at room temperature for 10 min, and the emission increase was linear during this interval.
H2O2 production was initiated by the addition of NADPH and measured by Amplex Red for 10 min.

Test [2] has as its system hypoxia-induced pulmonary hypertension in mice. Briefly: Aerosolized peptide in hypoxia-induced pulmonary hypertension, right ventricular hypertrophy. The format is in vivo, mice (C57BL/6). The procedure:
Nebulization was performed using a peptide solution of 5.6 mg of the Nox2ds-tat polypeptide—RKKRRQRRRCSTRIRRQL (SEQ ID NO: 7)—was dissolved in 5 mL of PBS. The polypeptide-containing solution was placed in a nebulization chamber which consisted of a Plexiglas living environment measuring 24×10×9 in. A diffuser was placed in front of the inlet to allow equal distribution of nebulized droplets, and a controlled fan pulled air through the environment
The polypeptide was delivered to mice (C57BL/6, n=2) at an air flow rate of 8 L/minute for 20 minutes per treatment. Treatment was repeated every other day for 21 days.
FIG. 7 (top panel) is a graph showing right ventricular pressure and FIG. 7 (bottom panel) is a graph showing the Fulton's Index for the mice tested. To obtain a Fulton's Index, the heart and lungs are excised and weighed, and the ratio of RV free wall weight over septum plus left ventricular (LV) free wall weight is estimated and used as the index of RV hypertrophy.
Invasive hemodynamics to examine RV function were carried out using pressure-volume loop analysis (Scisence P/V loop hardware, London, Ontario with IOX2 analysis software, EMKA, Falls Church, Va.). Contractility index (dP/dtmax/IP), Powermax/EDV, and ejection fraction as indicators of RV systolic function as well as the time constant of relaxation (Tau) and dP/dtmin as measures of RV relaxation were determined.

Where no end group is shown, it is not given here.

Regarding CSTRVRRQL-NH2 [Nox2ds, CSTRVRRQL], the “inhibition of COS-Nox4 lysate H2O2 production (in words)” value in test [1] was “did not inhibit”. Besides, the “rate of H2O2 production, Amplex red oxidation” value in test [1] (0.1 μM peptide) is on record as 74.3±2.1 nmol H2O2/min/10^7 cell lysate equivalents; in test [1] (0.3 μM peptide) it was 74.1±5.9 nmol H2O2/min/10^7 cell lysate equivalents; in test [1] (1 μM peptide), 82.3±3.4 nmol H2O2/min/10^7 cell lysate equivalents; in test [1] (3 μM peptide), 83.3±1.6 nmol H2O2/min/10^7 cell lysate equivalents. The “right ventricular hypertrophy and RV pressure (in words)” value in test [2] (hypoxia-induced pulmonary hypertension in mice) is on record as “attenuated”. The “right ventricule/left ventricule+septum ratio (Fulton's Index)” value in test [2] (hypoxic mice, n=2, normoxic 0.21±0.01, hypoxic 0.27±0.02, preliminary data) is given as 0.22±0.004.

The values above are taken from US9585933B2, “Therapeutic use of peptide inhibitors of NADPH oxidase; aerosolization as a delivery mechanism” (University of Pittsburgh—Of the Commonwealth System of …, priority 2011, dated 2017).
